Reference: article PMC12633754, “Elastase inhibition by natural flavonoids: mechanistic insights and potential therapeutic applications” (Frontiers in Nutrition, 2025)

Legend:
[1] = biological target: T1, porcine pancreatic elastase (PPE) (Sus scrofa, UniProt P00772); assay: Elastase inhibition assay, fluorescent substrate MeOSuc-Ala-Ala-Pro-Val-AMC; format: biochemical; conditions: for inhibition at 22.5 µM: read-out: Inhibition rate of PPE; for IC50: 298 K
T1 construct: purchased Sigma-Aldrich (St. Louis, MO, United States)
Description: Elastase was selected as the enzyme target and MeOSuc-Ala-Ala-Pro-Val-AMC as the substrate for the enzymatic reaction. According to the principle of enzyme reactions, an in vitro target enzyme drug screening model was established by measuring the relative fluorescence intensity for drug screening and evaluation. The inhibition rate was measured using a FlexStation3 multifunctional plate reader (Molecular Devices, Shanghai, China). Elastase solution (50 μL, 5 × 10^−7 mol/L) was mixed with a fluorescent substrate (50 μL, 2 × 10^−5 mol/L), and Tris–HCl buffer solution was added to obtain a total volume of 200 μL. […] The excitation wavelength was adjusted to 380 nm, and the emission wavelength was recorded in the range 420–540 nm. A 200 μL buffer solution was used as the blank for reference. The relative fluorescence values of pure enzyme activity were recorded. Four monomer solutions of the same concentration were added separately and their relative fluorescence values were measured under the same conditions. The concentration of each monomer was varied in different samples to obtain IC50 values. Inhibition rate (%) was calculated as follows:
Inhibition rate(%)=RFUPPE−RFUDrugs+PPE/RFUPPE×100% (1)
where the relative fluorescence unit (RFU) PPE refers to the relative fluorescence measured when only PPE and the fluorescent substrate are present without any inhibitors, and RFU Drugs+PPE refers to the relative fluorescence measured when both PPE and the test drug inhibitor are present.

[2] = biological target: T1, porcine pancreatic elastase (PPE); assay: Intrinsic fluorescence quenching of PPE: Stern-Volmer, binding constants, thermodynamics; conditions: for ΔH / ΔS: van't Hoff, 298, 303, 310 K; for Kd: Ka binding constant
Description: Fluorescence measurements were performed using a model F-7000 fluorescence spectrometer (Hitachi, Tokyo, Japan). Elastase solution (2,000 μL in Tris–HCl buffer solution) was mixed with inhibitor solutions at different concentrations in a 1.0 cm quartz cell at 298, 303, and 310 K. The final concentrations of the four natural flavonoids and elastase were identical to those used to obtain the synchronous fluorescence spectra. The fluorescence emission spectra were recorded within the range of 285–500 nm, following excitation at 280 nm. The excitation and emission slit widths were set as 2.5 nm. The scan speed was 1,200 nm/min and the photomultiplier tube (PMT) voltage was 630 V. Fluorescence intensities were corrected for inner filter and dilution effects before analyzing the binding and quenching data.
To determine the type of fluorescence quenching of the monomer interacting with PPE, the Stern-Volmer equation was used ([20]–[22]):
F0/F=KSV[Q]+1=Kqτ0[Q]+1 (2)
where F0 and F are the fluorescence intensities of PPE before and after the addition of different monomer solutions, respectively, Ksv is the quenching constant, [Q] is the concentration of different drugs, Kq is the quenching rate constant, τ0 is the average fluorescence lifetime of the substance in the absence of a quencher, and τ0 for the general biological macromolecule is 1 × 10^−8 s ([20], [23], [24]).
According to the correction formula, the binding constant (Ka) and number of binding points (n) for the actions of the four monomers and PPE were calculated as follows ([25]–[27]):
lgF0−F/F=nlgKa−nlg1/[Q0]−[P0]F0−F/F0 (3)
where [ Q0 ] and [P0] are the drug and PPE concentrations, respectively.
where K is the binding constant of the interaction, R is the gas constant, ΔH, ΔG, and ΔS are enthalpy, Gibbs energy, and entropy change.

[3] = biological target: T1, porcine pancreatic elastase (PPE); assay: Fluorescence resonance energy transfer and binding distance; conditions: [PPE] = [flavonoid] = 10 μM, 298 K
Description: The PPE-quercetin, PPE-hyperoside, PPE-luteolin, and PPE-luteoloside binding distances were calculated according to the fluorescence resonance energy transfer theory ([31]–[33]):
J=∑FD(λ)εA(λ)λ^4Δλ/∑FD(λ)Δλ (9)
where k^2 is the dipole moment spatial orientation factor, usually taking the average 2/3; φ is the quantum efficiency of PPE, usually a quantum efficiency of Try residues of 0.15; n is the refractive index of the medium, representing the average of water and organic matter; J is the overlap integral of the absorption spectra and the fluorescence spectra; and ɛA(λ) is the molar extinction coefficient ([34]–[36]).

[4] = biological target: T1, porcine pancreatic elastase (PPE); assay: FT-IR spectra of PPE-monomer complexes; conditions: PPE 10 μM, flavonoid 100 μM
Description: FTIR spectra were obtained using the potassium bromide (KBr) compression method with a Nicolet IS-50 spectrometer (Thermo Fisher Scientific, Waltham, MA, United States). […] The sheets were then dried at 45 °C and pressed. Blank background for the PBS buffer sheets. The spectral region between 4,000 and 500 cm^−1 was selected to examine changes in the secondary structure resulting from enzyme-drug interactions. All samples were assayed after drying and the experimental conditions were consistent for each group of assays.

[5] = biological target: T1, porcine pancreatic elastase (PPE); assay: CD spectroscopy, secondary structure of PPE; conditions: PPE 5 μM, flavonoid 2.5 μM, 298 K; for α-helix (%): PPE alone 7.50; for Random coil (%): PPE alone 41.00; for β-sheet (%): PPE alone 51.50
Description: The CD spectra of PPE, PPE-quercetin, PPE-hyperoside, PPE-luteolin, and PPE-luteoloside were obtained using an MOS-500 CD spectrometer (Biologic Science Instruments, Seyssinet-Pariset, France). […] Set at a temperature of 298 K. The signal was recorded from 190 to 260 nm using a path length of 1 mm, acquisition duration of 0.5 s, and scanning step of 2 nm. The CD spectra were averaged after performing three scans and correcting for the background value of the phosphate buffer. All results were documented as CD ellipticity in degrees.

[6] = biological target: T1, porcine pancreatic elastase (PPE); assay: UV-vis absorption spectra of PPE with flavonoid; conditions: PPE 5 μM, flavonoid 15 μM, 298 K
Description: The UV–vis absorption spectra of porcine pancreatic elastase PPE (2.5 mL) were recorded using a Cary 300 spectrometer (Agilent, San Diego, CA, United States) in a quartz cuvette with a path length of 10 mm. PPE concentration was fixed at 5 μM and the drug concentrations were 0 and 15 μM. Tris–HCl solution (pH 7.6) was used as the blank. The control group was a solution of four flavonoid monomers at a final concentration of 15 μM. The spectra were recorded in the range of 200–500 nm with a slit width of 2 nm at 298 K.

[7] = biological target: T1, porcine pancreatic elastase (PPE); assay: Synchronous fluorescence spectra of PPE; conditions: Δλ = 60 nm, PPE 2 μM, flavonoid 0-80 μM, 298 K
Description: For the synchronous fluorescence spectroscopy experiments, the configuration of the solution preparation was the same as that used in experiment 2.3. Synchronous fluorescence spectra of PPE-quercetin, PPE-hyperoside, PPE-luteolin, and PPE-luteoloside were recorded at 298 K.

[8] = biological target: elastase; set-up: method as in doi:10.19894/j.issn.1000-0518.210248; conditions: elastase inhibition, earlier study ref 61; cited from earlier work

T1 sequence (P00772 27-266): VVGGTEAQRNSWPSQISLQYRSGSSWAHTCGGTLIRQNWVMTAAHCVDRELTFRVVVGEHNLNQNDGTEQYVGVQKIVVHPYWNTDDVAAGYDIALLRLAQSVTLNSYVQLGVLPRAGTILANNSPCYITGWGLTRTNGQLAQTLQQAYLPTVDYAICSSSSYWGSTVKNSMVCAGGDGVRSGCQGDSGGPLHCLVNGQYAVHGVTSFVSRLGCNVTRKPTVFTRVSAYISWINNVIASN

O=c1c(O)c(-c2ccc(O)c(O)c2)oc2cc(O)cc(O)c12 [quercetin]
inhibition at 22.5 µM [1]: 22.2%
KSV Stern-Volmer quenching constant ([2]; 298 K): 0.59 10^4 L•mol^−1
Kq quenching rate constant ([2]; 298 K): 0.59 10^12 L•mol^−1•s^−1
n number of binding sites ([2]; 298 K): 1.13
ΔG ([2]; 298 K): -5.153 kcal/mol
KSV Stern-Volmer quenching constant ([2]; 303 K): 0.58 10^4 L•mol^−1
Kq quenching rate constant ([2]; 303 K): 0.58 10^12 L•mol^−1•s^−1
n number of binding sites ([2]; 303 K): 0.99
ΔG ([2]; 303 K): -5.208 kcal/mol
KSV Stern-Volmer quenching constant ([2]; 310 K): 0.52 10^4 L•mol^−1
Kq quenching rate constant ([2]; 310 K): 0.52 10^12 L•mol^−1•s^−1
n number of binding sites ([2]; 310 K): 0.80
ΔG ([2]; 310 K): -5.284 kcal/mol
ΔH [2]: -1.901 kcal/mol
ΔS [2]: 45.6521 J/(mol•K)
R0 [3]: 1.91 nm
binding distance r [3]: 2.82 nm
amide I band of PPE after addition (from 1638.45) [4]: 1633.59 cm⁻¹
decrease of α-helical structure [5]: 1.14%
α-helix (%) [5]: 6.36%
Random coil (%) [5]: 44.59%
β-sheet (%) [5]: 49.05%

O=c1c(O[C@@H]2O[C@H](CO)[C@H](O)[C@H](O)[C@H]2O)c(-c2ccc(O)c(O)c2)oc2cc(O)cc(O)c12 [hyperoside]
IC50 [1]: 31 µM
inhibition at 22.5 µM [1]: 41.1%
KSV Stern-Volmer quenching constant ([2]; 298 K): 5.47 10^4 L•mol^−1
Kq quenching rate constant ([2]; 298 K): 5.47 10^12 L•mol^−1•s^−1
n number of binding sites ([2]; 298 K): 1.58
KSV Stern-Volmer quenching constant ([2]; 303 K): 4.85 10^4 L•mol^−1
Kq quenching rate constant ([2]; 303 K): 4.85 10^12 L•mol^−1•s^−1
n number of binding sites ([2]; 303 K): 1.56
ΔG ([2]; 303 K): -6.874 kcal/mol
KSV Stern-Volmer quenching constant ([2]; 310 K): 4.78 10^4 L•mol^−1
Kq quenching rate constant ([2]; 310 K): 4.78 10^12 L•mol^−1•s^−1
n number of binding sites ([2]; 310 K): 1.35
ΔG ([2]; 310 K): -6.881 kcal/mol
Kd ([2]; 298 K): 24.6 µM
Kd ([2]; 303 K): 29.6 µM
Kd ([2]; 310 K): 31.3 µM
ΔH [2]: -6.5753 kcal/mol
ΔS [2]: −4.108 J/(mol•K)
R0 [3]: 1.86 nm
binding distance r [3]: 2.40 nm
blue shift of maximum absorption peak of PPE (275 nm) [6]: 4 nm
red shift of Trp synchronous fluorescence [7]: 7 nm
amide I band of PPE after addition (from 1638.45) [4]: 1633.14 cm⁻¹
decrease of α-helical structure [5]: 1.20%
α-helix (%) [5]: 6.30%
Random coil (%) [5]: 46.34%
β-sheet (%) [5]: 47.36%

CC(C)(C)C(=O)Oc1ccc(S(=O)(=O)Nc2ccccc2C(=O)NCC(=O)O)cc1 [sivelestat sodium]
IC50 [8]: 9.98 µM

O=c1cc(-c2ccc(O)c(O)c2)oc2cc(O[C@@H]3O[C@H](CO)[C@@H](O)[C@H](O)[C@H]3O)cc(O)c12 [luteoloside]
IC50 [1]: 61.3 µM
inhibition at 22.5 µM [1]: 12.2%
KSV Stern-Volmer quenching constant ([2]; 298 K): 1.79 10^4 L•mol^−1
Kq quenching rate constant ([2]; 298 K): 1.79 10^12 L•mol^−1•s^−1
n number of binding sites ([2]; 298 K): 0.95
ΔG ([2]; 298 K): -5.834 kcal/mol
KSV Stern-Volmer quenching constant ([2]; 303 K): 1.66 10^4 L•mol^−1
Kq quenching rate constant ([2]; 303 K): 1.66 10^12 L•mol^−1•s^−1
n number of binding sites ([2]; 303 K): 0.93
ΔG ([2]; 303 K): -5.92 kcal/mol
KSV Stern-Volmer quenching constant ([2]; 310 K): 1.57 10^4 L•mol^−1
Kq quenching rate constant ([2]; 310 K): 1.57 10^12 L•mol^−1•s^−1
n number of binding sites ([2]; 310 K): 1.07
ΔG ([2]; 310 K): -6.042 kcal/mol
Kd ([2]; 298 K): 52.4 µM
Kd ([2]; 303 K): 53.8 µM
Kd ([2]; 310 K): 55.2 µM
ΔH [2]: -0.6989 kcal/mol
ΔS [2]: 72.107 J/(mol•K)
R0 [3]: 1.99 nm
binding distance r [3]: 2.71 nm
blue shift of maximum absorption peak of PPE (275 nm) [6]: 8 nm
red shift of Trp synchronous fluorescence [7]: 1 nm
amide I band of PPE after addition (from 1638.45) [4]: 1634.55 cm⁻¹
decrease of α-helical structure [5]: 1.99%
α-helix (%) [5]: 5.51%
Random coil (%) [5]: 43.91%
β-sheet (%) [5]: 50.58%

O=c1cc(-c2ccc(O)c(O)c2)oc2cc(O)cc(O)c12 [luteolin]
IC50 [1]: 18.2 µM
inhibition at 22.5 µM [1]: 54.3%
KSV Stern-Volmer quenching constant ([2]; 298 K): 1.15 10^4 L•mol^−1
Kq quenching rate constant ([2]; 298 K): 1.15 10^12 L•mol^−1•s^−1
n number of binding sites ([2]; 298 K): 0.97
KSV Stern-Volmer quenching constant ([2]; 303 K): 1.04 10^4 L•mol^−1
Kq quenching rate constant ([2]; 303 K): 1.04 10^12 L•mol^−1•s^−1
n number of binding sites ([2]; 303 K): 1.11
ΔG ([2]; 303 K): -6.511 kcal/mol
KSV Stern-Volmer quenching constant ([2]; 310 K): 0.98 10^4 L•mol^−1
Kq quenching rate constant ([2]; 310 K): 0.98 10^12 L•mol^−1•s^−1
n number of binding sites ([2]; 310 K): 1.17
ΔG ([2]; 310 K): -6.52 kcal/mol
Kd ([2]; 298 K): 82.6 µM
Kd ([2]; 303 K): 95.2 µM
Kd ([2]; 310 K): 102 µM
ΔH [2]: -6.0327 kcal/mol
ΔS [2]: −6.585 J/(mol•K)
R0 [3]: 1.97 nm
binding distance r [3]: 2.67 nm
blue shift of maximum absorption peak of PPE (275 nm) [6]: 3 nm
red shift of Trp synchronous fluorescence [7]: 4 nm
amide I band of PPE after addition (from 1638.45) [4]: 1632.53 cm⁻¹
decrease of α-helical structure [5]: 0.96%
α-helix (%) [5]: 6.54%
